Consider 4 molecules from US20160097044A1, “Antimicrobial Enzyme Fusions Reduce Resistance and Kill Intracellular Staphylococcus aureus” (The United States of America, as Represented by the …, priority 2014, published 2016).

The test system of data set [1] is S. aureus strain Newman. As to the kind of experiment: Resistance development, plate lysis repeated exposure method. It counts as cell-based. To be noted: not shown. How it is done: For the plate lysis assays, purified enzymes were serially diluted in saline lysis buffer (SLB; 150 mM NaCl 10 mM Tris buffer, pH 7.5) with 15% glycerol, to yield concentrations of 100, 10, 1, and 0.1 pmoles/10 μl. S. aureus Newman was cultivated in tryptic soy broth (TSB) to an OD600 nm=0.4-0.6. The bacterial cells were harvested and diluted to yield a suspension with an OD600 nm of 0.1. Tryptic soy agar (TSA) plates were flooded with 3 ml of the bacterial cell suspension. Excess culture was removed, and the plates were air dried at room temperature for ˜30 min in a laminar flow hood. 10 μl of each peptidoglycan hydrolase dilution was then spotted onto the air-dried lawn, allowed to air dry, and the culture plates incubated overnight at 37° C. The following day, plates were evaluated visually and photographed.
In the Plate lysis method, bacterial cells were scraped from a sub-lethal (not fully cleared) spot from a plate lysis assay (described above), and these ‘exposed’ cells were used to inoculate 5 ml of TSB and grown for 4-6 hours to generate a new culture and lawn for subsequent exposure. Bacteria were passaged in this assay for up to 10 consecutive days, at which time the S. aureus were tested in MIC assays. Plate lysis repeated exposure experiments were performed in duplicate.

Another data set has as its system S. aureus Newbould 305. As to the kind of experiment: Murine model of mastitis, bacterial load. The data set is classed as in vivo, C57BL6/SJL mice. The conditions noted are these: single 1.25 nmoles intramammary infusion 30 minutes post infection, 18 h. As for the experimental part: FIG. 6a depicts the specific activity of peptidoglycan hydrolase fusion constructs in vitro in a turbidity reduction assay with S. aureus Newbould 305 resuspended in lysis buffer to an OD600nm of 1.0 and treated with 1 μM final concentrations of each peptidoglycan hydrolase. The maximum specific activity for three experiments are represented as an average with SEM error bars. FIG. 6b depicts the bacterial burden in mice with mastitis treated with recombinant peptidoglycan hydrolases. Colony Forming Units (CFUs) from infected murine mammary glands following a single treatment with 50 μl of 25 μM peptidoglycan hydrolase (1.25 nmol). Each data point represents the average of duplicate bacterial platings. The horizontal bars represent the average CFU/mg for each group. FIG. 6c illustrates the TNFα response in mice with mastitis that were treated with peptidoglycan hydrolases. Data represents a minimum of 7 measurements in duplicate. Log TNFα was used for statistical analysis. Single asterisks indicate a significant difference from buffer control (p<0.05); double asterisks indicate a significant difference from the parental enzyme (p<0.05).
To evaluate the efficacy of purified, individually administered peptidoglycan hydrolases in a murine model of bovine mastitis, female C57BL6/SJL mice were challenged by the intramammary route with 100 CFU S. aureus Newbould 305 in 50 μl buffer. A single 1.25 nmoles intramammary infusion of each desired peptidoglycan hydrolase (50 μl of a 25 μM solution) or 50 μl PBS was given 30 minutes post infection [with up to six glands treated per animal, each gland receiving a unique treatment] as described earlier (Schmelcher et al. 2012. Appl. Environ. Microbiol. 78:2297-2305; Kerr et al. 2001. Nat. Biotechnol. 19:66-70). Dams were euthanized 18 h post infusion, the mammary glands were aseptically dissected, and portions of the gland were used for determination of bacterial load and TNFα concentrations, as described previously (Schmelcher et al., supra).
Statistical analysis: The variables were analyzed as two-factor mixed models with Treatment as the factor and Mouse as random Blocks. This model […] within mouse correlations. Log(TNFα) was used. The variance grouping technique was used for log CFU and log TNFα to correct for variance heterogeneity. Means comparisons were done with Sidak adjusted p-values so that the experiment-wise error was 0.05. Log(TNFα) is back-transformed to the original units for graphing.

A further data set deals with S. xylosus MP05. Description: Minimum Inhibitory Concentration (MIC) assay. It counts as cell-based, Staphylococcus xylosus. The conditions noted are these: Mastitis isolate S. xylosus MP05.
The next data set has as its system S. epidermidis MP04. Description: Minimum Inhibitory Concentration (MIC) assay. To be noted: Mastitis isolate S. epidermidis MP04. The data set is classed as cell-based, Staphylococcus epidermidis.
Another data set deals with S. warneri MP06. As to the kind of experiment: Minimum Inhibitory Concentration (MIC) assay. It counts as cell-based, Staphylococcus warneri. The conditions noted are these: Mastitis isolate S. warneri MP06.
The subject of data set [2] is S. aureus strain Newman. The data set is classed as cell-based. The conditions noted are these: tenth round compared to first exposure. How it is done: For the MIC repeated exposure method, MIC determinations were performed with S. aureus strain Newman. 100 μl of S. aureus strain Newman culture that survived at ½ the MIC (the first well with visible growth) for each round was inoculated into 5 ml TSB and cultivated to mid-log phase growth. This culture was used as the inoculum for the next round of MIC exposure (overnight growth), and the cycle was repeated for 10 rounds.
Development of resistance to the triple-acting fusion enzymes was tested on S. aureus strain Newman and compared to both parental enzymes applied individually or simultaneously. […] Survivors of the ten round exposure to peptidoglycan hydrolase were passaged five times in medium with no peptidoglycan hydrolase added. […] We compared our triple-acting fusions to small molecule antibiotics in similar assays.

In data set [3] the test system is live S. aureus strain Newman cells. Description: Turbidity reduction assay. The data set is classed as cell-based. The conditions noted are these: 30 minute assay, 150 mM NaCl in SLB, FIG. 3d. An excerpt:
FIGS. 3a-3d depict peptidoglycan hydrolase purity and the S. aureus bactericidal assay. […] FIG. 3b is a zymogram analysis using whole S. aureus (Newman) cells embedded within the gel matrix. FIG. 3c is a plate lysis analysis of peptidoglycan hydrolase constructs using live S. aureus (Newman) cell lawns clarified with indicated picomoles of each purified peptidoglycan hydrolase. FIG. 3d is a turbidity reduction analysis showing the linear range of enzyme concentration. A twofold dilution series of each enzyme was used in a 30 minute turbidity reduction assay on live S. aureus strain Newman cells to determine the enzyme concentrations that are within the linear range for each enzyme. Reaction conditions were 150 mM NaCl in SLB. Black, dark grey, light grey, and white bars represent peptidoglycan hydrolase constructs lysostaphin (L), LysK (K), triple fusion K-L, and triple fusion L-K, respectively, as named in FIG. 1a. Values are reported as the maximum rate ΔOD600nm/min±SEM.
SDS-PAGE, zymogram, turbidity reduction and plate lysis assays were performed as described previously (Becker et al. 2009, supra) with minor modifications as follows. For SDS-PAGE and zymogram analysis, one μg of the purified peptidoglycan hydrolase proteins and Kaleidoscope protein standards (Invitrogen, Carlsbad, Calif.) were analyzed by 15% SDS-PAGE. […]

As to “K-L: both LysK lytic domains fused to the N-terminus of lysostaphin; SEQ ID NO:5, protein SEQ ID NO:6”, in the data set with S. aureus strain Newman [1], the “increased resistance during 10 rounds of sub-lethal exposure in plate lysis assays” value (from here on “increased resistance during 10 rounds”) is reported as “no detectable increase in resistance”. The “bacterial load / clearance of mammary glands (in words)” value in the data set with S. aureus Newbould 305 is reported as “not able to clear the mammary gland bacterial infection more than buffer alone”. Further, the “Minimum Inhibitory Conc. (median μg/ml)” value with S. xylosus MP05 came out at 3.5 µg/mL; in the data set with S. epidermidis MP04, 3.5 µg/mL; with S. warneri MP06, 5.3 µg/mL. Further, the “increase in MIC after 10 rounds of sub-lethal exposure” value (from here on “increase in MIC after 10 rounds”) in the data set with S. aureus strain Newman [2] is on record as 8 fold. The “turbidity reduction activity compared to parental enzymes” value in data set [3] is recorded as “as effective as the parental peptidoglycan hydrolases”.
For “L: 247 amino acid mature (secreted) lysostaphin, staphylolytic bacteriocin, C-terminal His6 tag; SEQ ID NO:1 [reference compound]”, the “increased resistance during 10 rounds” value in the data set with S. aureus strain Newman [1] is on record as 8 fold. For the same molecule, in the data set with S. aureus Newbould 305, the “reduction of bacterial load in mammary glands compared to controls” value is reported as “approximately 4 logs”. Besides, the “Minimum Inhibitory Conc. (median μg/ml)” value with S. xylosus MP05 was determined as 0.39 µg/mL; in the data set on S. epidermidis MP04 it was 6.2 µg/mL; with S. warneri MP06 it was 1.5 µg/mL. In addition, the “increase in MIC after 10 rounds” value in the data set with S. aureus strain Newman [2] turned out to be 585 fold.

B1: L-K: LysK lytic domains inserted between lysostaphin's M23 endopeptidase domain and SH3b cell wall binding domain; SEQ ID NO:7, protein SEQ ID NO:8 (protein)
chain: MAATHEHSAQWLNNYKKGYGYGPYPLGINGGMHYGVDFFMNIGTPVKAISSGKIVEAGWSNYGGGNQIGLIENDGVHRQWYMHLSKYNVKVGDYVKAGQIIGWSGSTGYSTAPHLHFQRMVNSFSNSTAQDPMPFLKSAGYGKAGGTVTPTPNTGLDAKTQAEINKRLDAYAKGTVDSPYRVKKATSYDPSFGVMEAGAIDADGYYHAQCQDLITDYVLWLTDNKVRTWGNAKDQIKQSYGTGFKIHENKPSTVPKKGWIAVFTSGSYEQWGHIGIVYDGGNTSTFTILEQNWNGYANKKPTKRVDNYYGLTHFIEIPVKAGTTVKKETAKKSASKTPAPKKKATLKVSKNHINYTMDKRGKKPEGMVIHNDAGRSSGQQYENSLANAGYARYANGIAHYYGSEGYVWEAIDAKNQIAWHTGDGTGANSGNFRFAGIEVCQSMSASDAQFLKNEQAVFQFTAEKFKEWGLTPNRKTVRLHMEFVPTACPHRSMVLHTGFNPVTQGRPSQAIMNKLKDYFIKQIKNYMDKGTSSSTVVKDGKTSSASLDTVTPTPNTGWKTNKYGTLYKSESASFTPNTDIITRTTGPFRSMPQSGVLKAGQTIHYDEVMKQDGHVWVGYTGNSGQRIYLPVRTWNKSTNTLGVLWGTIKLEHHHHHH
modifications: Staphylococcus simulans & Phage K
Regarding B1, the “increased resistance during 10 rounds” value in the data set with S. aureus strain Newman [1] is recorded as “no detectable increase in resistance”. Besides, the “Minimum Inhibitory Conc. (median μg/ml)” value worked out at 4.0 µg/mL in the data set on S. xylosus MP05, 4.2 µg/mL in the data set with S. epidermidis MP04 and 1.5 µg/mL in the data set on S. warneri MP06. Besides, in the data set on S. aureus strain Newman [2], the “increase in MIC after 10 rounds” value was 2 fold. Also, the “turbidity reduction activity compared to parental enzymes” value in data set [3] is recorded as “as effective as the parental peptidoglycan hydrolases”.

B2: K: 495 amino-acid staphylococcal phage K endolysin LysK, C-terminal His6 tag; SEQ ID NO:3 (protein)
chain: MAKTQAEINKRLDAYAKGTVDSPYRVKKATSYDPSFGVMEAGAIDADGYYHAQCQDLITDYVLWLTDNKVRTWGNAKDQIKQSYGTGFKIHENKPSTVPKKGWIAVFTSGSYEQWGHIGIVYDGGNTSTFTILEQNWNGYANKKPTKRVDNYYGLTHFIEIPVKAGTTVKKETAKKSASKTPAPKKKATLKVSKNHINYTMDKRGKKPEGMVIHNDAGRSSGQQYENSLANAGYARYANGIAHYYGSEGYVWEAIDAKNQIAWHTGDGTGANSGNFRFAGIEVCQSMSASDAQFLKNEQAVFQFTAEKFKEWGLTPNRKTVRLHMEFVPTACPHRSMVLHTGFNPVTQGRPSQAIMNKLKDYFIKQIKNYMDKGTSSSTVVKDGKTSSASTPATRPVTGSWKKNQYGTWYKPENATFVNGNQPIVTRIGSPFLNAPVGGNLPAGATIVYDEVCIQAGHIWIGYNAYNGNRVYCPVRTCQGVPPNQIPGVAWGVFKLEHHHHHH
modifications: C-terminal His6 tag; Phage K
B2: the “increased resistance during 10 rounds” value in the data set on S. aureus strain Newman [1] turned out to be 2 fold. In addition, the “Minimum Inhibitory Conc. (median μg/ml)” value amounted to 8.4 µg/mL in the data set with S. xylosus MP05, 8.4 µg/mL with S. epidermidis MP04 and 28 µg/mL with S. warneri MP06. Also, the “increase in MIC after 10 rounds” value in the data set on S. aureus strain Newman [2] turned out to be 42 fold.
